Tested on: HCT116
Test: Cell colony formation assay
Assay type: cell-based
Conditions: 72 hours with drug, colonies counted after 7 days
Experimental: This example provides directions for growing cells and testing compounds of the invention for their effect on the growth of the cells. All cells were purchased from DCTDC Tumor Repository, NCI, NIH.
Cell Colony Formation Assay
Four hundred cells (HCT 116, PC-3) or five hundred cells (VM46) were plated in 60 mm Petri dishes containing 2.7 ml of medium (modified McCoy's 5a medium) containing 10% fetal bovine serum and 100 units/ml penicillin and […] streptomycin. The cells were incubated in a CO2 incubator at 37° C. for 5 hours for attachment to the bottom of Petri dishes. Drugs were made fresh in medium at ten times the final concentration, and then 0.3 ml of this stock solution was added to the 2.7 ml of medium in the dish. The cells were then incubated with drugs for 72 hours at 37° C. At the end of the incubation the drug-containing media were decanted, the dishes were rinsed with 4 ml of Hank's Balance Salt Solution (HBSS), 5 ml of fresh medium was added, and the dishes were returned to the incubator for colony formation. The cell colonies were counted using colony counter after incubation for 7 days for HCT116 cells and PC-3 cells and 8 days for VM46 cells, respectively.
Values of ID50 (the drug concentration producing 50% inhibition of colony formation) may be determined for each tested compound. The directions described in this example may be used in other cells, such as DU-145.

Compound | Survival (%) of HCT116 (100 nM) | Survival (%) of HCT116 (10 nM) | Survival (%) of HCT116 (1 nM)
COc1cc2c(c(OC)c1OC)-c1ccc(SC)c(=O)cc1C(NC(=O)COc1ccc(OC(F)(F)F)cc1)CC2 (stereo not drawn) [Compound 001213, N-Deacetyl-N-(4-trifluoromethoxyphenoxyacetyl)thiocolchicine] | 62.56% | – | –
COc1cc2c(c(OC)c1OC)-c1ccc(SC)c(=O)cc1C(NC(=O)C(C)ON=C1c3cc([N+](=O)[O-])cc([N+](=O)[O-])c3-c3c1cc([N+](=O)[O-])cc3[N+](=O)[O-])CC2 (stereo not drawn) [Compound 000913, N-Deacetyl-N-[(+)-2-(2,4,5,7-tetranitro-9-fluorenylideneaminooxy)propionyl]thiocolchicine] | 1.00% | 90.91% | –
COc1cc2c(c(OC)c1OC)-c1ccc(SC)c(=O)cc1C(NC(=O)CCc1cccnc1)CC2 (stereo not drawn) [Compound 000901, N-Deacetyl-N-(3-pyridinepropionyl)thiocolchicine] | 0% | 61.60% | –
COc1cc2c(c(OC)c1OC)-c1ccc(SC)c(=O)cc1[C@@H](NC(=O)COc1ccc([N+](=O)[O-])c(C(F)(F)F)c1)CC2 [Compound 001107, N-Deacetyl-N-(3-trifluoromethyl-4-nitropbenoxyacetyl)thiocolchicine] | 100% | – | –
COc1cccc(OCC(=O)NC2CCc3cc(OC)c(OC)c(OC)c3-c3ccc(SC)c(=O)cc32)c1 (stereo not drawn) [Compound 001024, N-Deacetyl-N-(3-methoxyphenoxyacetyl)thiocolchicine] | 0% | 98.0% | –
CCC(=C(CC)c1ccc(OCC(=O)NC2CCc3cc(OC)c(OC)c(OC)c3-c3ccc(SC)c(=O)cc32)cc1)c1ccc(OCC(=O)NC2CCc3cc(OC)c(OC)c(OC)c3-c3ccc(SC)c(=O)cc32)cc1 (stereo not drawn) [Compound 000927, Dimer of N-Deacetylthiocolchicine] | 0% | 100% | –
COc1cc2c(c(OC)c1OC)-c1ccc(SC)c(=O)cc1C(NC(=O)N1c3ccccc3Sc3ccccc31)CC2 (stereo not drawn) [Compound 000928, N-Deacetyl-N-(phenothiazin-10-ylcarbonyl)thiocolchicine] | 100% | – | –
COc1cc2c(c(OC)c1OC)-c1ccc(SC)c(=O)cc1C(NC(=O)CCN1CCN(c3cccc(C(F)(F)F)c3)CC1)CC2 (stereo not drawn) [Compound 001227, N-Deacetyl-N-(3-(4-[3-trifluoromethylphenyl]piperazinyl)propionyl)thiocolchicine] | 0% | 100% | –
COc1cc2c(c(OC)c1OC)-c1ccc(SC)c(=O)cc1C(NC(=O)COc1c(F)c(F)c(F)c(F)c1F)CC2 (stereo not drawn) [Compound 000912, N-Deacetyl-N-(2,3,4,5,6-pentafluorophenoxyacetyl)thiocolchicine] | 0.50% | 100% | –
COc1cc2c(c(OC)c1OC)-c1ccc(SC)c(=O)cc1C(NC(=O)Cn1cnnn1)CC2 (stereo not drawn) [Compound 000918, N-Deacetyl-N-(1H-tetrazole-1-acetyl)thiocolchicine] | 13.61% | – | –
COc1cc2c(c(OC)c1OC)-c1ccc(SC)c(=O)cc1C(NC(=O)COc1c(I)cc(C#N)cc1I)CC2 (stereo not drawn) [Compound 001229, N-Deacetyl-N-(2,6-diiodo-4-cyanophenoxyacetyl)thiocolchicine] | 0% | 100% | –
COc1cccc(N2CCN(CCC(=O)NC3CCc4cc(OC)c(OC)c(OC)c4-c4ccc(SC)c(=O)cc43)CC2)c1 (stereo not drawn) [Compound 001225, N-Deacetyl-N-(4-[3-methoxyphenyl]-piperazinylpropionyl)thiocolchicine] | 0% | 80.5% | –
COc1cc2c(c(OC)c1OC)-c1ccc(SC)c(=O)cc1C(NC(=O)c1ccc(N3C(=O)c4ccccc4C3=O)cc1)CC2 (stereo not drawn) [Compound 001114, N-Deacetyl-N-(4-phthalimidobenzoyl)thiocolchicine] | 95.05% | – | –
COc1cc2c(c(OC)c1OC)-c1ccc(SC)c(=O)cc1C(NC(=O)COc1ccnc3ccccc13)CC2 (stereo not drawn) [Compound 001201, N-Deacetyl-N-(quinoline-4-oxyacetyl)thiocolchicine] | 95.07% | – | –
COc1cc2c(c(OC)c1OC)-c1ccc(SC)c(=O)cc1C(NC(=O)COc1ccc(C#N)c(F)c1)CC2 (stereo not drawn) [Compound 001106, N-Deacetyl-N-(3-fluoro-4-cyanophenoxyacetyl)thiocoichicine] | 0% | 98.51% | –
COc1cc2c(c(OC)c1OC)-c1ccc(SC)c(=O)cc1C(NC(=O)c1ccc3c(c1)C(=O)c1ccccc1C3=O)CC2 (stereo not drawn) [Compound 000908, N-Deacetyl-N-(anthraquinone-2-carbonyl)thiocolchicine] | 0% | 100% | –
COc1cc2c(c(OC)c1OC)-c1ccc(SC)c(=O)cc1[C@@H](NC(C)=O)CC2 [Thiocolchicine, thiocolchicine, reference compound] | 0% | 0% | 100%
COc1cc2c(c(OC)c1OC)-c1ccc(SC)c(=O)cc1[C@@H](NC(=O)COc1cc(C(F)(F)F)cc(C(F)(F)F)c1)CC2 [Compound 001207, N-Deacetyl-N-(3,5-di-trifluoromethylphenoxyacetyl)thiocolchicine] | 3.10% | – | –
COc1cc2c(c(OC)c1OC)-c1ccc(SC)c(=O)cc1[C@@H](NC(=O)c1cn(C)c3nc(C)ccc3c1=O)CC2 [Compound 000920, N-Deacetyl-N-(1,7-dimethylnaphthyridin-4-one-3-carboxy)thiocolchicine] | 95.68% | – | –
CCC(=C(CC)c1ccc(OCC(=O)NC2CCc3cc(OC)c(OC)c(OC)c3-c3ccc(SC)c(=O)cc32)cc1)c1ccc(OCC(=O)NC2CCc3cc(OC)c(OC)c(OC)c3-c3ccc(SC)c(=O)cc32)cc1 (stereo not drawn) [Compound 000828, Dimer of N-Deacetylthiocolchicine] | 93.81% | – | –
COc1cc2c(c(OC)c1OC)-c1ccc(SC)c(=O)cc1C(NC(=O)CCN1C(=O)c3ccccc3C1=O)CC2 (stereo not drawn) [Compound 000925, N-Deacetyl-N-(3-phthalimidopropionyl)thiocolchicine] | 0% | 98.67% | –
COc1cc2c(c(OC)c1OC)-c1ccc(SC)c(=O)cc1C(NC(=O)CSc1ccncc1)CC2 (stereo not drawn) [Compound 000922, N-Deacetyl-N-(4-pyridylthioacetyl)thiocolchicine] | 0% | 0% | 100%
COc1cc2c(c(OC)c1OC)-c1ccc(SC)c(=O)cc1C(NC(=O)CSc1cc(C)c(Cl)cc1Cl)CC2 (stereo not drawn) [Compound 000831] | 89.15% | – | –
COc1cc2c(c(OC)c1OC)-c1ccc(SC)c(=O)cc1C(NC(=O)C1CCCN1C(=O)OC(C)(C)C)CC2 (stereo not drawn) [Compound 000915, N-Deacetyl-N-(1-t-butoxycarbonyl-2-pyrrolidinecarbonyl)thiocolchicine] | 70.12% | – | –
COc1cc2c(c(OC)c1OC)-c1ccc(SC)c(=O)cc1C(NC(=O)Cn1cc(C)c(=O)[nH]c1=O)CC2 (stereo not drawn) [Compound 000905, N-Deacetyl-N-(thymine-1-acetyl)thiocolchicine] | 96.66% | – | –
COc1cc2c(c(OC)c1OC)-c1ccc(SC)c(=O)cc1C(NC(=O)CSc1ccc(Cl)cc1)CC2 (stereo not drawn) [Compound 000921, N-Deacetyl-N-[(4-chlorophenylthio)acetyl]thiocoichicine] | 0% | 96.18% | –
